Experimental data published in patent publication EP0726263A2, “Herbicidal (1,3,4)oxadiazoles and thiadiazoles” (American Cyanamid Company, priority 1995, dated 1996).

What was measured:
Assay type in all cases: in vivo
[1] = tested on: Abutilon theophrasti; assay: Herbicidal activity, preemergence test; details: pre; sprayed onto soil, 800 g of active material per hectare; evaluated 3 weeks after treatment
Protocol: (§1) To evaluate their herbicidal activity, compounds according to the invention are tested using a representative range of plants: TRZAW Triticum aestivum HORVW Hordeum vulgare ZEAMX Zea mays GOSHI Gossypium hirsutum HELAN Helianthus annuus GLYMA Glycine max ALOMY Alopecurus myosuroides SETVI Setaria viridis ECHCG Echinochloa crus-galli GALAP Galium aparine STEME Stellaria media VERPE Veronica persica VIOAR Viola arvensis IPOHE Ipomoea hederacea LAMPU Lamium purpureum PAPRH Papaver rhoeas MATIN Matricaria inodora AMARE Amaranthus retroflexus ABUTH Abutilon theophrasti AMBEL Ambrosia artemisifolia CHEAL Chenopodium album
(§2) The tests fall into two categories, preemergence and postemergence. The preemergence tests involve spraying a liquid formulation of the compound onto the soil in which the seeds have recently been sown. The postemergence tests involve spraying a liquid formulation of the compound onto seedling plants.
(§3) The soil used in the tests is a prepared horticultural loam.
(§4) The formulations used in the tests are prepared from solutions of the test compounds in acetone containing 0.4% by weight of an alkylphenol/ethylene oxide condensate available under the trade mark TRITON X-155. These acetone solutions are diluted with water and the resulting formulations applied at dosage levels corresponding to 800 g of active material per hectare in a volume equivalent to 900 litres per hectare.
(§5) In the preemergence tests untreated sown soil and in the postemergence tests untreated soil bearing seedling plants are used as controls.
(§6) Results of herbicide evaluation are expressed on a rating scale (0-9). The scale is based upon a visual observation of plant stand, vigor, malformation, size, chlorosis, and general plant appearance as compared to a control. Preemergence and postemergence treatments are evaluated at 3 and 2 weeks after treatment, respectively.

[2] = tested on: Alopecurus myosuroides; assay: Herbicidal activity, preemergence test; details: pre; sprayed onto soil, 800 g of active material per hectare; evaluated 3 weeks after treatment
Protocol: as §1, §2, §3, §4, §5, §6

[3] = tested on: Amaranthus retroflexus; assay: Herbicidal activity, preemergence test; details: pre; sprayed onto soil, 800 g of active material per hectare; evaluated 3 weeks after treatment
Protocol: as §1, §2, §3, §4, §5, §6

[4] = tested on: Ambrosia artemisifolia; assay: Herbicidal activity, preemergence test; details: pre; sprayed onto soil, 800 g of active material per hectare; evaluated 3 weeks after treatment
Protocol: as §1, §2, §3, §4, §5, §6

[5] = tested on: Chenopodium album; assay: Herbicidal activity, preemergence test; details: pre; sprayed onto soil, 800 g of active material per hectare; evaluated 3 weeks after treatment
Protocol: as §1, §2, §3, §4, §5, §6

[6] = tested on: Galium aparine; assay: Herbicidal activity, preemergence test; details: pre; sprayed onto soil, 800 g of active material per hectare; evaluated 3 weeks after treatment
Protocol: as §1, §2, §3, §4, §5, §6

[7] = tested on: Glycine max; assay: Herbicidal activity, preemergence test; details: pre; sprayed onto soil, 800 g of active material per hectare; evaluated 3 weeks after treatment
Protocol: as §1, §2, §3, §4, §5, §6

[8] = tested on: Gossypium hirsutum; assay: Herbicidal activity, preemergence test; details: pre; sprayed onto soil, 800 g of active material per hectare; evaluated 3 weeks after treatment
Protocol: as §1, §2, §3, §4, §5, §6

[9] = tested on: Hordeum vulgare; assay: Herbicidal activity, preemergence test; details: pre; sprayed onto soil, 800 g of active material per hectare; evaluated 3 weeks after treatment
Protocol: as §1, §2, §3, §4, §5, §6

[10] = tested on: Ipomoea hederacea; assay: Herbicidal activity, preemergence test; details: pre; sprayed onto soil, 800 g of active material per hectare; evaluated 3 weeks after treatment
Protocol: as §1, §2, §3, §4, §5, §6

[11] = tested on: Lamium purpureum; assay: Herbicidal activity, preemergence test; details: pre; sprayed onto soil, 800 g of active material per hectare; evaluated 3 weeks after treatment
Protocol: as §1, §2, §3, §4, §5, §6

[12] = tested on: Matricaria inodora; assay: Herbicidal activity, preemergence test; details: pre; sprayed onto soil, 800 g of active material per hectare; evaluated 3 weeks after treatment
Protocol: as §1, §2, §3, §4, §5, §6

[13] = tested on: Papaver rhoeas; assay: Herbicidal activity, preemergence test; details: pre; sprayed onto soil, 800 g of active material per hectare; evaluated 3 weeks after treatment
Protocol: as §1, §2, §3, §4, §5, §6

[14] = tested on: Setaria viridis; assay: Herbicidal activity, preemergence test; details: pre; sprayed onto soil, 800 g of active material per hectare; evaluated 3 weeks after treatment
Protocol: as §1, §2, §3, §4, §5, §6

[15] = tested on: Stellaria media; assay: Herbicidal activity, preemergence test; details: pre; sprayed onto soil, 800 g of active material per hectare; evaluated 3 weeks after treatment
Protocol: as §1, §2, §3, §4, §5, §6

[16] = tested on: Triticum aestivum; assay: Herbicidal activity, preemergence test; details: pre; sprayed onto soil, 800 g of active material per hectare; evaluated 3 weeks after treatment
Protocol: as §1, §2, §3, §4, §5, §6

[17] = tested on: Veronica persica; assay: Herbicidal activity, preemergence test; details: pre; sprayed onto soil, 800 g of active material per hectare; evaluated 3 weeks after treatment
Protocol: as §1, §2, §3, §4, §5, §6

[18] = tested on: Zea mays; assay: Herbicidal activity, preemergence test; details: pre; sprayed onto soil, 800 g of active material per hectare; evaluated 3 weeks after treatment
Protocol: as §1, §2, §3, §4, §5, §6

[19] = tested on: Abutilon theophrasti; assay: Herbicidal activity, postemergence test; details: post; sprayed onto seedling plants, 800 g of active material per hectare; evaluated 2 weeks after treatment
Protocol: as §1, §2, §3, §4, §5, §6

[20] = tested on: Alopecurus myosuroides; assay: Herbicidal activity, postemergence test; details: post; sprayed onto seedling plants, 800 g of active material per hectare; evaluated 2 weeks after treatment
Protocol: as §1, §2, §3, §4, §5, §6

[21] = tested on: Amaranthus retroflexus; assay: Herbicidal activity, postemergence test; details: post; sprayed onto seedling plants, 800 g of active material per hectare; evaluated 2 weeks after treatment
Protocol: as §1, §2, §3, §4, §5, §6

[22] = tested on: Ambrosia artemisifolia; assay: Herbicidal activity, postemergence test; details: post; sprayed onto seedling plants, 800 g of active material per hectare; evaluated 2 weeks after treatment
Protocol: as §1, §2, §3, §4, §5, §6

[23] = tested on: Chenopodium album; assay: Herbicidal activity, postemergence test; details: post; sprayed onto seedling plants, 800 g of active material per hectare; evaluated 2 weeks after treatment
Protocol: as §1, §2, §3, §4, §5, §6

[24] = tested on: Galium aparine; assay: Herbicidal activity, postemergence test; details: post; sprayed onto seedling plants, 800 g of active material per hectare; evaluated 2 weeks after treatment
Protocol: as §1, §2, §3, §4, §5, §6

[25] = tested on: Glycine max; assay: Herbicidal activity, postemergence test; details: post; sprayed onto seedling plants, 800 g of active material per hectare; evaluated 2 weeks after treatment
Protocol: as §1, §2, §3, §4, §5, §6

[26] = tested on: Gossypium hirsutum; assay: Herbicidal activity, postemergence test; details: post; sprayed onto seedling plants, 800 g of active material per hectare; evaluated 2 weeks after treatment
Protocol: as §1, §2, §3, §4, §5, §6

[27] = tested on: Hordeum vulgare; assay: Herbicidal activity, postemergence test; details: post; sprayed onto seedling plants, 800 g of active material per hectare; evaluated 2 weeks after treatment
Protocol: as §1, §2, §3, §4, §5, §6

[28] = tested on: Ipomoea hederacea; assay: Herbicidal activity, postemergence test; details: post; sprayed onto seedling plants, 800 g of active material per hectare; evaluated 2 weeks after treatment
Protocol: as §1, §2, §3, §4, §5, §6

[29] = tested on: Lamium purpureum; assay: Herbicidal activity, postemergence test; details: post; sprayed onto seedling plants, 800 g of active material per hectare; evaluated 2 weeks after treatment
Protocol: as §1, §2, §3, §4, §5, §6

[30] = tested on: Matricaria inodora; assay: Herbicidal activity, postemergence test; details: post; sprayed onto seedling plants, 800 g of active material per hectare; evaluated 2 weeks after treatment
Protocol: as §1, §2, §3, §4, §5, §6

[31] = tested on: Papaver rhoeas; assay: Herbicidal activity, postemergence test; details: post; sprayed onto seedling plants, 800 g of active material per hectare; evaluated 2 weeks after treatment
Protocol: as §1, §2, §3, §4, §5, §6

[32] = tested on: Setaria viridis; assay: Herbicidal activity, postemergence test; details: post; sprayed onto seedling plants, 800 g of active material per hectare; evaluated 2 weeks after treatment
Protocol: as §1, §2, §3, §4, §5, §6

[33] = tested on: Stellaria media; assay: Herbicidal activity, postemergence test; details: post; sprayed onto seedling plants, 800 g of active material per hectare; evaluated 2 weeks after treatment
Protocol: as §1, §2, §3, §4, §5, §6

[34] = tested on: Triticum aestivum; assay: Herbicidal activity, postemergence test; details: post; sprayed onto seedling plants, 800 g of active material per hectare; evaluated 2 weeks after treatment
Protocol: as §1, §2, §3, §4, §5, §6

[35] = tested on: Veronica persica; assay: Herbicidal activity, postemergence test; details: post; sprayed onto seedling plants, 800 g of active material per hectare; evaluated 2 weeks after treatment
Protocol: as §1, §2, §3, §4, §5, §6

[36] = tested on: Zea mays; assay: Herbicidal activity, postemergence test; details: post; sprayed onto seedling plants, 800 g of active material per hectare; evaluated 2 weeks after treatment
Protocol: as §1, §2, §3, §4, §5, §6

SMILES | ABUTH control rating (0-9) [1] | ALOMY control rating (0-9) [2] | AMARE control rating (0-9) [3] | AMBEL control rating (0-9) [4] | CHEAL control rating (0-9) [5] | GALAP control rating (0-9) [6] | GLXMA control rating (0-9) [7] | GOSHI control rating (0-9) [8] | HORVW control rating (0-9) [9] | IPOHE control rating (0-9) [10] | LAMPU control rating (0-9) [11] | MATIN control rating (0-9) [12] | PAPRH control rating (0-9) [13] | SETVI control rating (0-9) [14] | STEME control rating (0-9) [15] | TRZAW control rating (0-9) [16] | VERPE control rating (0-9) [17] | ZEAMX control rating (0-9) [18] | ABUTH control rating (0-9) [19] | ALOMY control rating (0-9) [20] | also measured
O=C(NCc1cccs1)c1nnc(-c2ccccc2F)o1 [Example 11] | 0 (no effect) | 0 (no effect) | 7 (good herbicidal effect) | 0 (no effect) | 3 (moderate effect) | 0 (no effect) | 0 (no effect) | 0 (no effect) | 0 (no effect) | 0 (no effect) | 0 (no effect) | 2 (slight effect) | 8 (approaching complete kill) | 3 (moderate effect) | 7 (good herbicidal effect) | 0 (no effect) | 7 (good herbicidal effect) | 1 (trace effect) | 5 (definite injury) | 0 (no effect) | AMARE control rating (0-9) [21]: 9 (complete kill); AMBEL control rating (0-9) [22]: 4 (injury); CHEAL control rating (0-9) [23]: 8 (approaching complete kill); GALAP control rating (0-9) [24]: 0 (no effect); GLXMA control rating (0-9) [25]: 0 (no effect); GOSHI control rating (0-9) [26]: 1 (trace effect); HORVW control rating (0-9) [27]: 0 (no effect); IPOHE control rating (0-9) [28]: 0 (no effect); LAMPU control rating (0-9) [29]: 0 (no effect); MATIN control rating (0-9) [30]: 0 (no effect); PAPRH control rating (0-9) [31]: 7 (good herbicidal effect); SETVI control rating (0-9) [32]: 0 (no effect); STEME control rating (0-9) [33]: 7 (good herbicidal effect); TRZAW control rating (0-9) [34]: 0 (no effect); VERPE control rating (0-9) [35]: 6 (herbicidal effect); ZEAMX control rating (0-9) [36]: 0 (no effect)
C[C@H](NC(=O)c1nnc(-c2ccc(Cl)cc2)o1)c1ccccc1 [Example 12] | 2 (slight effect) | 1 (trace effect) | 8 (approaching complete kill) | 0 (no effect) | 8 (approaching complete kill) | 0 (no effect) | 0 (no effect) | 0 (no effect) | 0 (no effect) | 0 (no effect) | 8 (approaching complete kill) | 7 (good herbicidal effect) | 9 (complete kill) | 9 (complete kill) | 9 (complete kill) | 0 (no effect) | 9 (complete kill) | 0 (no effect) | 9 (complete kill) | 3 (moderate effect) | AMARE control rating (0-9) [21]: 9 (complete kill); AMBEL control rating (0-9) [22]: 7 (good herbicidal effect); CHEAL control rating (0-9) [23]: 9 (complete kill); GALAP control rating (0-9) [24]: 6 (herbicidal effect); GLXMA control rating (0-9) [25]: 5 (definite injury); GOSHI control rating (0-9) [26]: 9 (complete kill); HORVW control rating (0-9) [27]: 4 (injury); IPOHE control rating (0-9) [28]: 9 (complete kill); LAMPU control rating (0-9) [29]: 9 (complete kill); MATIN control rating (0-9) [30]: 5 (definite injury); PAPRH control rating (0-9) [31]: 9 (complete kill); SETVI control rating (0-9) [32]: 9 (complete kill); STEME control rating (0-9) [33]: 9 (complete kill); TRZAW control rating (0-9) [34]: 2 (slight effect); VERPE control rating (0-9) [35]: 9 (complete kill); ZEAMX control rating (0-9) [36]: 3 (moderate effect)
